Measurements as given in patent US7888332B2, “Hydrazide-containing CFTR inhibitor compounds and uses thereof” (The Regents of the University of California, priority 2004, dated 2011).
Like-named read-outs stand apart in the source and are kept apart here.

Experiments:
[1] = target: T1, CFTR (cAMP-stimulated short-circuit current) in human airway cells (Homo sapiens, UniProt P13569); experiment: Short-circuit current in human airway (primary human bronchial) cells; format: cell-based; details: primary human bronchial cell cultures
T1 construct: endogenous in cells; host or cells: primary human bronchial epithelial cell cultures
Description: (§1) The efficacy of GlyH-101 in inhibiting cAMP/cholera toxin-induced intestinal fluid secretion was also evaluated. Short-circuit current experiments were done in different cell types and in intact mouse ileum under non-permeabilized conditions and in the absence of a Cl^− gradient. In each case CFTR was activated by CPT-cAMP after ENaC inhibition by amiloride. […] Inhibition was ˜100% at higher GlyH-101 concentrations. Cholera toxin-induced intestinal fluid secretion was measured in an in vivo closed-loop model in which loops for each mouse were injected with saline (control), cholera toxin (1 μg), or cholera toxin (1 μg)+GlyH-101 (0.25 μg). GlyH-101 was added to the lumen (rather than systemically) based on initial studies showing poor intestinal absorption and little effect of systemically administered compound. Compared to the saline control, the cholera toxin-induced increase in fluid secretion over 4 hours, quantified from loop weight-to-length ratio, was 80% reduced by GlyH-101.

[2] = tested on: cholera toxin-induced intestinal fluid secretion; design: species or system mice; details: mouse, in vivo
[3] = Spectrophotometric pH titration (pKa); format: physicochemical
Description: FIG. 5A is a graph illustrating the pH-dependent absorbance changes (right panel) of the chemical compounds (10 μM) (corresponding chemical structures, left panel) in NaCl (100 mM) containing MES, HEPES, boric acid, and citric acid (each 10 mM) titrated to different pH using HCl/NaOH. Absorbance changes measured at analytical wavelengths of 346, 348, 346, and 236 nm (top to bottom).

CFTR [4] = target: T2, CFTR (Homo sapiens, UniProt P13569); experiment: Cell-based YFP fluorescence assay of iodide influx after CFTR activation (screening); design: expressed in transfected cells; host or cells: Fisher Rat Thyroid (FRT) cells, stably transfected
Description: Screening was performed using an integrated system (Beckman) consisting of a 3-meter robotic arm, CO2 incubator, plate washer, liquid handling work station, barcode reader, delidding station, plate sealer and two fluorescence plate readers (Optima, BMG Lab Technologies), each equipped with two syringe pumps and HQ500/20X (500±10 nm) excitation and HQ535/30M (535±15 nm) emission filters (Chroma).
One hundred thousand small molecules (most 350-550 daltons) were selected for screening from commercial sources (ChemBridge and ChemDiv, both of San Diego, Calif.) using algorithms designed to maximize chemical diversity and drug-like properties. The compounds were obtained as a dried powder and solutions were made in DMSO just before testing, stored frozen as 2.5 mM stock solutions for further use.
For screening, cells in 96-well plates were washed three times and then CFTR halide conductance was activated by incubation for 15 minutes with an activating cocktail containing 10 μM forskolin, 20 μM apigenin and 100 μM isobutylmethyl-xanthine (IBMX). Test compounds (final 25 μM) were added 5 minutes prior to assay of iodide influx in which cells were exposed to a 100 mM inwardly-directed iodide gradient. YFP fluorescence was recorded for 2 seconds prior to and 12 seconds after creation of the iodide gradient. Initial rates of iodide influx were computed from the time course of decreasing fluorescence after the iodide gradient (Yang et al., J. Biol. Chem., 35079-35085, 2003).
A collection of 100,000 small, drug-like compounds was screened to identify new CFTR inhibitors. As diagrammed in FIG. 1A, compounds were screened at 25 μM in a cell-based assay of iodide influx after CFTR activation by an agonist mixture containing forskolin, IBMX and apigenin. Initial rates of iodide influx were computed from the kinetics of fluorescence decrease following chloride replacement by iodide. Four compounds (FIG. 1B) reducing iodide influx by greater than 50% were identified, which were not related structurally to known CFTR activators or inhibitors.

CFTR [5] = target: T2, CFTR; experiment: Short-circuit current (apical Cl− current) analysis on permeabilized CFTR-expressing FRT cells
[6] = target: T3, CFTR (cAMP-stimulated short-circuit current) in T84 cells (Homo sapiens, UniProt P13569); experiment: Short-circuit current in non-permeabilized T84 cells; format: cell-based
T3 construct: endogenous in cells; host or cells: T84 colon epithelial cells
Description: as §1

[7] = Initial studies of GlyH-101 intestinal absorption and systemic administration; format: in vivo
Description: as §1

[8] = CPT-cAMP after amiloride, read-out: Ki for inhibition of cAMP-stimulated short-circuit current
[9] = after GlyH-101 addition (10 μM)

T2 sequence (P13569 whole entry): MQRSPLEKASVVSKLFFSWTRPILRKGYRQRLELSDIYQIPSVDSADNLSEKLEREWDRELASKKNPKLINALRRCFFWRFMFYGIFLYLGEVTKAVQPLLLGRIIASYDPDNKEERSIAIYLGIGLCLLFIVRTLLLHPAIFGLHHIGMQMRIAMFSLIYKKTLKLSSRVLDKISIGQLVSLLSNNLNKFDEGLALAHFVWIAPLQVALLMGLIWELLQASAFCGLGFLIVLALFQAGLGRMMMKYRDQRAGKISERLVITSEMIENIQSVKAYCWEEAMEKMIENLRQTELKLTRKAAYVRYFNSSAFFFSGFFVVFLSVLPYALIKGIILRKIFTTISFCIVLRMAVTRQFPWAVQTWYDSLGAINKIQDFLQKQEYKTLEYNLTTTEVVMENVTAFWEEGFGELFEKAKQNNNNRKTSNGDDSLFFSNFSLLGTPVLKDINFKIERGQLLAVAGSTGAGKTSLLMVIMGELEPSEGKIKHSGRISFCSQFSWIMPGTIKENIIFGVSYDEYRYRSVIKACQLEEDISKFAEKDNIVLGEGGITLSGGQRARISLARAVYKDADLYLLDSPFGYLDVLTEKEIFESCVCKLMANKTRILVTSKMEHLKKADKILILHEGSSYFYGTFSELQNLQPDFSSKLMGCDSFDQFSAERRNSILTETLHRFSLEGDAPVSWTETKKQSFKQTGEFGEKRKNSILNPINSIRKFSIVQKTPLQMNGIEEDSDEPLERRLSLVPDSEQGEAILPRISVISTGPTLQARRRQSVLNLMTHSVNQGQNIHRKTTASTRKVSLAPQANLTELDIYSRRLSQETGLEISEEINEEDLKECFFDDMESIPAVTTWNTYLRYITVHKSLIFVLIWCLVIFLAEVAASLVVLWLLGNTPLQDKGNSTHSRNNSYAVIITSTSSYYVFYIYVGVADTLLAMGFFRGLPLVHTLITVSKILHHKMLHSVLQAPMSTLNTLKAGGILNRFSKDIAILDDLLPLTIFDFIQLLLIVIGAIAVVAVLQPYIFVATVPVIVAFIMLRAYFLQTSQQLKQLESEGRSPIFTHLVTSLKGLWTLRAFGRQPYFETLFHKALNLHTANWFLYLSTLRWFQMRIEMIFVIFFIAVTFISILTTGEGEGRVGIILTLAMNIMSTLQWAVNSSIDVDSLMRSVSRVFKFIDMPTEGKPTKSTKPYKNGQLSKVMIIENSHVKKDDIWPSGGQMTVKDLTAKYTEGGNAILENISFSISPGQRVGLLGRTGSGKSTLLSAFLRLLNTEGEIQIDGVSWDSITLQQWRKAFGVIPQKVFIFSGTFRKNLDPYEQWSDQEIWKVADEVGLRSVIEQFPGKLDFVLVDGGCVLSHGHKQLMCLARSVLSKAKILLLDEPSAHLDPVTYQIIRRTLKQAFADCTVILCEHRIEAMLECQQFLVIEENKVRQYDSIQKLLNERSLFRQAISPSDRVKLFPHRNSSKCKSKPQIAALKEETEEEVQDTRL
T3 sequence (P13569 whole entry): as above
T1 sequence (P13569 whole entry): as above

In the case of `O=C(CNc1ccc2ccccc2c1)NN=Cc1cc(Br)c(O)c(Br)c1O` [GlyH-101, N-2-napthalenyl-[(3,5-dibromo-2,4-dihydroxyphenyl)methylene]glycine hydrazide], the “Inhibition at higher concentrations” value [1] is reported as about 100%, the Ki [1, 8] is reported as about 5 µM and the “reduction of cholera toxin-induced increase in fluid secretion (loop weight-to-length ratio)” value [2] is reported as 80%. The “pKa, first (para) phenolic hydroxyl” value [3] was about 5.5, the “pKa, second ortho hydroxyl” value [3] was about 8.5 and the “pKa, secondary amine” value [3] was about 4.7. The ionic form ([3]; pH between 6 and 8) was “singly charged anion”, the “CFTR inhibition after activation by different types of agonists” value (CFTR [4]; 50 μM GlyH-101, agonists 50 μM incl. CFTRact-01, 08, 10) was “effective CFTR inhibition” and the “time of further inhibition” value (CFTR [4]; [9]) was about 1 min. The “time within which 50% of the inhibition occurred” value (CFTR [4]; [9]) was at most 1 s, the “reversal of inhibition after washout” value (CFTR [4]; washout) was “complete reversal” and the “reversal of inhibition over 5 minutes after washout” value (CFTR [4]; washout, 5 minutes) was over 75%. The “% inhibition at 50 μM” value (CFTR [5]; Table 1, Group I, 50 μM) was 95%, the Ki (CFTR [5]; Table 1, Group I, concentration giving 50% inhibition of CFTR Cl− conductance) was 5 µM and the “pH dependence of Ki for inhibition of CFTR Cl− current” value (CFTR [5]; pH range 6-8) was “independent of pH”. The Ki (CFTR [5]; read-out: Ki of screening hits, dose-response measurements, confirmed by short-circuit current analysis) was about 5 µM, the “Inhibition at higher concentrations” value [6] was about 100% and the Ki [6, 8] was about 5 µM. The “effect of systemically administered compound” value [7] was “little effect” and the intestinal absorption [7] was “poor”.
